Patent publication US11882858B2, “Composition for skin whitening comprising β-mangostin as effective ingredient” (INDUSTRY-ACADEMIC COOPERATION FOUNDATION GYEONGSANG …, priority 2015, dated 2024)
Where a SMILES comes first, the peptide text is derived from it. The star is where a group is joined. Cbz = O=C(OCc1ccccc1)*

Tests used:
[1] = target: T1, tyrosinase (Mus musculus, UniProt P11344); assay: Tyrosinase activity (L-DOPA oxidation) in cell lysates; type: cell-based
T1 construct: The cultured cells were collected and dissolved with 1% Triton X-100 solution for 1 hour on ice; endogenous in cells; host or cells: B16F10 mouse melanoma cells
T1 sequence (P11344 19-533): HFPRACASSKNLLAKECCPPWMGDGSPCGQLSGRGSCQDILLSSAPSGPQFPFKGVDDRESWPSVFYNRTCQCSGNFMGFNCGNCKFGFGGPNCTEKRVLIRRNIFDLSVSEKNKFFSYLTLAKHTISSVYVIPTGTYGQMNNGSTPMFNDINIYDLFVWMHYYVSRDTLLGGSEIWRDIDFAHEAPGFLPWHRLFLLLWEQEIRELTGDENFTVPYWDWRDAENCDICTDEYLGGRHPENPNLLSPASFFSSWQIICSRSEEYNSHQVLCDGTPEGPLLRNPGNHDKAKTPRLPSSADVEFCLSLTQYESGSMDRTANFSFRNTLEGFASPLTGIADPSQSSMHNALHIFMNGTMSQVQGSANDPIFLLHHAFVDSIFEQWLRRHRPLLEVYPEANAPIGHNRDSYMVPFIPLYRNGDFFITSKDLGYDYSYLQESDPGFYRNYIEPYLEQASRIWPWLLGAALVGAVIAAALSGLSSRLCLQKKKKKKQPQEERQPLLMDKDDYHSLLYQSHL
Description: Tyrosinase activity was measured by slightly modifying the method by Ohgushi et al. (Ohgushi et al., 2009, Biological & Pharmaceutical Bulletin 32, 308-10). Specifically, B16F10 cells were inoculated into a 6-well plate and cultured for 24 hours. Thereafter, the cells were treated with β-mangostin and α-MSH, each at 1 μM, followed by culture for 48 hours. The cultured cells were collected and dissolved with 1% Triton X-100 solution for 1 hour on ice. The proteins were cultured with 100 μl (2 mg/ml) L-DOPA in a 5% CO2 humidifying incubator at 37° C. condition. By using a microplate reader (Bio-Rad), absorbance at 490 nm was measured.

[2] = tested on: TRP-1 (tyrosinase-related protein-1); assay: TRP-1 expression (RT-PCR and Western blotting); type: cell-based, mouse; details: B16F10 cells
Description: (§1) Total RNA was extracted from the cells by using RiboEX reagent (GeneAll Biotechnology Co. Ltd, Seoul, South Korea). cDNA was synthesized by using 2 μg of RNA based on reverse transcription (Thermo Scientific, Waltham, MA, USA). PCR was carried out by using Solg™ e-Taq DNA polymerase kit (SolGent Co. Ltd, Daejeon, South Korea), and each primer described in the following Table 1 was used for PCR.
(§2) Total proteins were extracted by using RIPA dissolving buffer (50 mM Tris-HCl (pH 8.0), 150 mM NaCl, 1% NP-40, 0.5% sodium dioxycholate and 0.1% SDS). The proteins were separated on a 10 to 15% SDS-PAGE, and transferred to a PVDF membrane (Millipore, Billerica, MA, USA). The membrane was then incubated with 5% skim milk and primary antibody for 1 hour in TBS (tris-buffer saline) containing 0.1% Tween 20. The antibodies against tyrosinase and TRP-1 were purchased from Santa Cruz Biotechnology, USA. LC3B, p62 and ATG5 were purchased from CST (Cell Signaling Technology, USA). The antibody against PMEL was purchased from Abcam (UK). Signal detection was made based on enhanced chemiluminescence (Bio-Rad).
In order to confirm the whitening effect of β-mangostin, RT-PCR and Western blotting analysis were carried out for tyrosinase and TRP-1.

[3] = tested on: p62 and PMEL (premelanosome protein); assay: p62 and PMEL expression (Western blot); type: cell-based, mouse; details: for effect on the suppressed expression of p62 and PMEL induced by β-mangostin: autophagy inhibitor with β-mangostin and α-MSH
Description: as §2
Autophagy occurs through a fusion process between an autophagosome and a lysosome. In order to confirm whether or not the depigmentation effect induced by β-mangostin occurs through lysosome-dependent protein degradation during the autophagy process, B16F10 cells were treated with bafilomycin A1 (liquid vacuole type, H^+-ATPase inhibitor) which inhibits β-mangostin, α-MSH, and lysosome activity. As a result, as it is shown in FIG. 7, bafilomycin A1 inhibits, at the aforementioned conditions, the suppressed tyrosinase expression that has been induced by β-mangostin.

[4] = tested on: tyrosinase; assay: Tyrosinase expression (RT-PCR and Western blotting); type: cell-based, mouse; details: for effect on the suppressed tyrosinase expression induced by β-mangostin: autophagy inhibitor with β-mangostin and α-MSH
Description: as §1
as §2, with “The proteins were separated on a 10 to 15% SDS-PAGE, and transferred to a PVDF membrane (Millipore, Billerica, MA, USA).” left out

[5] = tested on: mRFP-EGFP-LC3B in B16F10 cells; assay: Melanosome autophagy in cells expressing mRFP-EGFP-LC3B (confocal microscopy); type: cell-based, mouse; details: β-mangostin (10 μM) and α-MSH (1 μM)
Description: B16F10 cells were infected with mRFP-EGFP-LC3B (Kimura et al., 2007, Autophagy 3, 452-60) by using Lipofectamine 3000 (Invitrogen, Carlsbad, CA, USA). The cells were treated with β-mangostin (10 μM) and α-MSH (1 μM), and analysis was made by using confocal microscopy (FV1000, Olympus, Tokyo, Japan).
In order to confirm whether or not β-mangostin can induce the autophagy of a melanosome, B16F10 cells were infected with a construct expressing mRFP-EGFP-LC3B, and then treated with β-mangostin and α-MSH. […] On the other hand, the number of red spots increased in the group treated with both α-MSH and β-mangostin while total number of spots has decreased. If an autophagosome fuses with a lysosome only after wrapping the melanosome, the intra-autophagosomal pH should decrease, and EGFP should be abolished under acidic pH conditions. Accordingly, it was found from the above results that, due to the autophagy enhanced by β-mangostin, degradation of a melanosome has occurred.

[6] = tested on: B16F10 mouse melanoma cells; assay: Suppression of α-MSH-induced pigmentation (cell pellet color); type: cell-based; details: co-treatment with α-MSH, 72 hours
Description: In order to see whether or not β-mangostin can suppress the pigmentation induced by α-MSH (melanocyte-stimulating hormone), B16F10 cells were treated with α-MSH and β-mangostin followed by incubation for 72 hours. As a result, as it is shown in FIG. 3, cell pellets were turned into black color when the treatment is carried out with α-MSH only. […] Namely, it was shown that β-mangostin suppresses the pigmentation induced by α-MSH. […] In particular, when the treatment is carried out with β-mangostin at 5 μM, which is the same concentration as α-mangostin, melanin content was reduced by 40% or so.

[7] = tested on: B16F10 mouse melanoma cells; assay: Removal of melanin previously produced by α-MSH; type: cell-based; details: treatment after 2 days of α-MSH
Description: In order to determine the activity of β-mangostin for removing melanin which has been previously produced by α-MSH as a melanin cell stimulating hormone, B16F10 cells were treated for 2 days with α-MSH to have synthesis of melanin. Thereafter, the cells were treated with β-mangostin of the present invention and 3-MA, which is an autophagy inhibitor.

[8] = tested on: B16F10 mouse melanoma cells; assay: Melanin content in α-MSH-treated cells; type: cell-based; details: for change in melanin content / melanin content reduction: co-treatment with α-MSH, compared to α-MSH only; for melanin content reduction: 5 μM; for influence on melanin content: co-treatment of inhibitor with β-mangostin and α-MSH
Description: Measurement of melanin content was carried out by slightly modifying the method by Yang et al. (Yang et al., 2006, Acta pharmacologica Sinica 27, 1467-73). Specifically, B16F10 cells were inoculated into a 6-well plate and cultured for 24 hours. […] The cultured cells were collected after being subjected to trypsinization and dissolution in 1 N NaOH containing DMSO for 24 hours at 65° C. By using a microplate reader (Bio-Rad), melanin content was measured at 415 nm.
As a result, as it is shown in FIG. 3, cell pellets were turned into black color when the treatment is carried out with α-MSH only. […] Namely, it was shown that β-mangostin suppresses the pigmentation induced by α-MSH. […] In particular, when the treatment is carried out with β-mangostin at 5 μM, which is the same concentration as α-mangostin, melanin content was reduced by 40% or so.

[9] = tested on: B16F10 mouse melanoma cells; assay: Cell viability (MTT analysis); type: cell-based; details: 24 hours, at 20 μM and 40 μM
Description: B16F10 cells were cultured for 24 hours in a 96-well plate. […] Subsequently, a MTT solution (5 μg/mL) was added to the cells, which were then cultured for 3 hours. After removing the medium and treating the cells with DMSO, the cells were cultured for 20 minutes. By using a microplate reader (Bio-Rad), absorbance at 595 nm was measured.
Then, based on MTT […]-(4,5-dimethylthiazol-2-yl)-2,5-diphenyltetrazolium bromide) analysis, cell viability was determined.

[10] = siATG5, β-mangostin (10 μM) and α-MSH (1 μM), 48 hours
[11] = treatment after 2 days of α-MSH (melanin previously produced)

SMILES: COc1cc2oc3cc(O)c(OC)c(CC=C(C)C)c3c(=O)c2c(O)c1CC=C(C)C [β-mangostin]
- oxidation level of L-DOPA ([1]; co-treatment with α-MSH, concentration dependent): effectively reduced
- expression amount of TRP-1 induced by α-MSH [2]: effectively lowered
- expression of p62 and PMEL reduced by β-mangostin, after knockdown of ATG5 [3, 10]: increased again
- expression amount of PMEL [3, 11]: lower a significant expression amount
- expression amount of tyrosinase induced by α-MSH ([4]; RT-PCR and Western blotting, B16F10 cells): effectively lowered
- expression of tyrosinase reduced by β-mangostin, after knockdown of ATG5 [4, 10]: increased again
- expression amount of tyrosinase [4, 11]: lower a significant expression amount
- number of red spots (mRFP-EGFP-LC3B) [5]: increased
- total number of spots (mRFP-EGFP-LC3B) [5]: decreased
- cell pellet color [6]: changed from black color to white color
- content of previously formed melanin [7]: lower effectively
- change in melanin content [8]: effectively reduced
- melanin content reduction [8]: ~40%
- melanin content level reduced by β-mangostin, after knockdown of ATG5 [8, 10]: increased again

SMILES: CC(C)C[C@@H](C=O)NC(=O)[C@H](CC(C)C)NC(=O)[C@H](CC(C)C)NC(=O)OCc1ccccc1 [MG132] (Cbz-Leu-Leu-Leu-aldehyde)
- influence on L-DOPA oxidation ([1]; co-treatment of inhibitor with β-mangostin and α-MSH): no influence
- tyrosinase expression amount ([4]; co-treatment of inhibitor with β-mangostin and α-MSH (proteasome dependence)): did not increase
- influence on melanin content [8]: no influence

SMILES: COc1c(O)cc2oc3cc(O)c(CC=C(C)C)c(O)c3c(=O)c2c1CC=C(C)C [α-mangostin]
- cytotoxicity (cell viability, MTT) [9]: potent cytotoxicity
- melanin content reduction [8]: about 20%

SMILES: CO/C1=C\C(C)=C\[C@@H](C)[C@@H](O)[C@@H](C)C/C(C)=C/C=C/[C@H](OC)[C@@H]([C@@H](C)[C@@H](O)[C@H](C)[C@@]2(O)C[C@@H](O)[C@H](C)[C@@H](C(C)C)O2)OC1=O [bafilomycin A1]
- effect on the suppressed tyrosinase expression induced by β-mangostin [4]: inhibits

SMILES: CCN(CC)CCCC(C)Nc1ccnc2cc(Cl)ccc12 (centres unmarked) [chloroquine, reference compound]
- effect on the suppressed expression of p62 and PMEL induced by β-mangostin [3]: inhibit the suppressed expression
- effect on the suppressed tyrosinase expression induced by β-mangostin [4]: inhibited

SMILES: Cn1cnc(N)c2ncnc1-2 [3-methyladenine]
- effect on the suppressed expression of p62 and PMEL induced by β-mangostin [3]: inhibit the suppressed expression
- effect on the suppressed tyrosinase expression induced by β-mangostin [4]: inhibited
- influence on melanin content [8]: starts to increase again

SMILES: CC(C)=CCc1c(O)cc2oc3cc(O)c(O)c(CC=C(C)C)c3c(=O)c2c1O [γ-mangostin]
- change in melanin content [8]: further increased the melanin content
